Measurements from US9107415B2, “2-(substituted-phenyl)-cyclopentane-1,3-dione compounds, and derivatives thereof” (Syngenta Limited, priority 2011, dated 2015).

Columns and labels:
[1] = system: Echinochloa crus galli, barnyardgrass (ECHCG); test: Biological Example 3 glasshouse screen, post-emergence herbicidal activity; type: in vivo; conditions: 360 h, 15 DAA, no safener, read-out: ECHCG percentage phytotoxicity; for pest or weed control at 30 g/ha: application rate 30 g/ha; for pest or weed control at 60 g/ha: application rate 60 g/ha
Summary of the method: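 Seeds were sown in standard soil and cultivated for 12 days under controlled glasshouse conditions. Plants were then sprayed with the unformulated compound in acetone/IF50 plus 0.2% v/v X-77 in aqueous solution, without safener, and percentage damage was assessed visually 15 days later.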

[2] = Biological Example 5B “RASP” soil persistence method; conditions: 18 Acres soil
Protocol: Field soil (of the type “18 Acres”, as described in Biological Example 5A and Table 5.1 above) is sieved to 2 mm. The sieved soil is wetted up with distilled water, mixing thoroughly until it reaches “field capacity”. […] Usually, the moisture content of the soil used is about 25%.
For each compound tested, 6×50 mL polypropylene centrifuge tubes containing 10 g±0.5 g of soil at field capacity are used. Each tube lid has a 2 mm hole to allow for air circulation during the incubation period.
4×10 microliters of treatment solutions of the compounds to be tested are applied to the surface of the soil in groups of 6 tubes. 4×10 microliter drops are also dispensed into the treatment check vials and these are diluted to 1 mL with acetonitrile; at this point additional samples can be prepared for HPLC method development if required.
Two of the tubes containing the treated soil are capped and immediately frozen as T0 (day zero) samples. The remaining four samples are capped with lids containing a 2 mm hole drilled into the lid and incubated in controlled environment cabinets for the correct time interval at 20°C., 80% relative humidity.
After both one and four weeks incubation, two tubes from each treatment are removed from the cabinets, the lids are replaced for ones lacking ventilation holes and the tubes are frozen. When the samples are ready for analysis, a zero time, 1 week and 4 week sample for each compound is removed from the freezer and allowed to thaw. Immediately after thawing, 40 mL of extraction solution is added to the samples.
Samples are extracted using a mixture such as 80:20 (v/v) acetonitrile/1 M ammonium hydroxide solution. […]
All samples from the test are analysed by UPLC-MS. […]
For each compound, the molecular ion giving the best sensitivity is chosen and a single ion monitoring method is set up. The method development samples are re-analysed using the selected ion monitoring methods to check that suitable sensitivity is obtained.
Degradation kinetics, and an estimated half-life (T½) of the compound in the soil, can then be calculated using simple first order assumptions.

[3] = system: Spring Barley “Harrington”; test: Biological Example 4B post-emergence phytotoxicity on cereal crops; type: in vivo; conditions: 15 g/ha, cloquintocet-mexyl 50 g/ha, 14 DAA, technical compound in IF50 + Adigor, mean of two

SMILES | pest or weed control at 30 g/ha [1] [%] | pest or weed control at 60 g/ha [1] [%] | pest or weed control at 15 g/ha ([1]; application rate 15 g/ha) [%] | RASP Test: % of compound remaining at 0 weeks ([2]; 0 weeks) [%] | RASP Test: % of compound remaining at 1 week ([2]; 1 week incubation at 20°C) [%] | RASP Test: % of compound remaining at 4 weeks ([2]; 4 weeks incubation at 20°C) [%] | Spring Barley “Harrington” phytotoxicity (%) [3] [%]
CC#Cc1cc(C)c(C2=C(O)CC(Cc3ccc(C)cn3)C2=O)c(C)c1 (centres unmarked) [Compound A-8] | 70 | – | – | – | – | – | –
CC#Cc1cc(C)c(C2=C(O)CC(Cc3ccc(C#N)cn3)C2=O)c(C)c1 (centres unmarked) [Compound A-14] | 90 | 90 | – | – | – | – | –
CC#Cc1cc(C)c(C2C(=O)CC(Cc3ccn(C)n3)C2=O)c(C)c1 (centres unmarked) [Compound A-19] | 100 | – | 70 | 80 | 79 | 80 | 3
CC#Cc1cc(C)c(C2=C(O)CC(Cc3ccc(F)cn3)C2=O)c(C)c1 (centres unmarked) [Compound A-11] | 100 | 100 | – | – | – | – | –
